The results in this text go back to ChEMBL document CHEMBL1201862, “PubChem BioAssay data set” (2004).

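Method: 48-hour compound exposure of cells in 96-well plates, five concentrations, linear interpolation of endpoints. GI50 = concentration required for 50% inhibition of growth.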 Activity calls are given as the source filed them. Cut-off read from the data, not from the text of the source: active = GI50 up to about 1.1 µM and inactive = higher.

Common to all, as to test: inhibition of tumour cell growth, NCI panel, 48 h
Experiment [1] concerns A549.
Experiment [2] has as its system ACHN.
Experiment [3] has as its system NCI-H522.
Experiment [4] has as its system MDA-MB-231.
The test system of experiment [5] is NCI-H460.
Experiment [6] relates to UACC-257.
Experiment [7] has as its system OVCAR-4.
For experiment [8], the system named is HL-60.
Experiment [9] concerns Malme-3M.
Experiment [10] relates to DU-145.
Experiment [11] has as its system NCI-H23.
Experiment [12] concerns CCRF-CEM.
Experiment [13] concerns RPMI-8226.
The subject of experiment [14] is COLO 205.
Experiment [15] relates to 786-0.
For experiment [16], the system named is SK-MEL-5.
Experiment [17] deals with SNB-75.
The subject of experiment [18] is T47D.

As for `O=C(COc1ccc(OCC(=O)NNC2=NC(c3cc(F)c(Cl)cc3Cl)CS2)c(Cl)c1)NNC1=NC(c2cc(F)c(Cl)cc2Cl)CS1` (centres undefined), the GI50 in experiment [1] was 14.3 µM (inactive); in experiment [2], 38.5 µM (inactive); in [3], 14.2 µM (inactive); in experiment [4], 20 µM (inactive); in experiment [5] it was 29.9 µM (inactive); in experiment [6] it was 48 µM (inactive). Further, the GI50 in experiment [7] is 14.7 µM (inactive); in experiment [8], 38.1 µM (inactive); in experiment [9], > 100 µM (inactive); in experiment [10], 22.8 µM (inactive); in experiment [11], 20.2 µM (inactive); in experiment [12] it was 28.6 µM (inactive). For the same compound, the GI50 was 20 µM (inactive) in [13], 34.2 µM (inactive) in experiment [14] and 60.4 µM (inactive) in experiment [15].

For `CC1(C)CCSC(/C=C/c2ccccc2)=N1`, the GI50 in [1] is 25.2 µM (inactive); in experiment [2] it was 17.5 µM (inactive); in experiment [3], 17 µM (inactive); in [4], 15.7 µM (inactive); in experiment [5], 12.1 µM (inactive); in experiment [6] it was 13 µM (inactive). Also, the GI50 in experiment [7] was 16 µM (inactive); in experiment [8], 33.1 µM (inactive); in [9] it was 11.8 µM (inactive); in experiment [10], 35.8 µM (inactive); in experiment [11], 17.8 µM (inactive); in experiment [12], 21.5 µM (inactive). Also, the GI50 in experiment [13] was 17.7 µM (inactive); in [16] it was 15.2 µM (inactive); in experiment [15], 12.9 µM (inactive).

Take `CC(C)n1c(=O)n(-c2ccccc2)n(C(C)(C)C)c1=O`: the GI50 in experiment [1], in [2], in [4], in [5], in experiment [6] and in experiment [7] was > 100 µM (inactive) in each case. Also, the GI50 was 47.4 µM (inactive) in [8]; > 100 µM (inactive) in experiment [9]; > 100 µM (inactive) in [17]; 83.2 µM (inactive) in experiment [11]; > 100 µM (inactive) in [12]; > 100 µM (inactive) in experiment [16]. Besides, the GI50 in experiment [14] and in experiment [15] was > 100 µM (inactive) each time.

Consider `Cc1n[nH]c(=O)n1N=C(c1ccccc1)c1ccccc1`, for which the GI50 in experiment [1], in experiment [2], in [3], in experiment [4], in [5] and in experiment [6] was > 100 µM (inactive) in each case. The GI50 in experiment [7] is > 100 µM (inactive); in [9], 24.9 µM (inactive); in [10], > 100 µM (inactive); in experiment [11], > 100 µM (inactive); in experiment [12], > 100 µM (inactive); in experiment [13], > 100 µM (inactive). Moreover, the GI50 in experiment [16], in [14] and in [15] was > 100 µM (inactive) throughout.

For the compound `CC(C)(C)OC(=O)N1CCC(NC(=O)NC2CCN(C(=O)OC(C)(C)C)CC2)CC1`, the GI50 in experiment [1], in experiment [2], in experiment [3], in [4], in experiment [5] and in experiment [6] was > 100 µM (inactive) in each case. The GI50 in experiment [7], in [8], in experiment [9], in [17], in experiment [11] and in experiment [12] was > 100 µM (inactive) throughout. The GI50 in experiment [13] and in [15] was > 100 µM (inactive) in each case.

On to `C=C1C[C@@H]2CC[C@@]34CC5O[C@H]6C(O[C@H]7CC[C@H](CC(=O)O[C@@H]8[C@@H](C)[C@@H]9O[C@@H]%10C[C@]%11(C[C@@H]%12O[C@]%13(C[C@H](C)[C@@H]%14O[C@@H]%15CC(C(COC(C)=O)OC(C)=O)O[C@@H]%15C[C@@H]%14O%13)C[C@H](C)[C@@H]%12O%11)O[C@@H]%10C[C@@H]9O[C@H]8CC8O[C@@H](CC[C@@H]1O2)C[C@@H](C)C8(O)CO)O[C@@H]7[C@@H]6O3)[C@H]5O4` (some centres undefined), for which the GI50 in experiment [1] is 0.413 µM (active); in experiment [2] it was 0.708 µM (active); in experiment [3], 0.137 µM (active); in [4], > 0.776 µM (active); in [5], 0.258 µM (active); in experiment [6] it was 0.0716 µM (active). Further, the GI50 in experiment [7] was > 1 µM (active); in experiment [17] it was 0.336 µM (active); in [10] it was 0.375 µM (active); in experiment [11], 0.264 µM (active); in experiment [18], > 0.451 µM (active); in experiment [12], 0.995 µM (active). In addition, the GI50 in experiment [13] was 0.413 µM (active); in experiment [16], 0.243 µM (active); in experiment [14] it was 0.311 µM (active); in experiment [15], 0.392 µM (active).

Regarding `CN(C)CC1CN=C(N)O1` (centres undefined), the GI50 in experiment [1], in experiment [2], in [3], in experiment [4], in experiment [5] and in experiment [6] was > 100 µM (inactive) each time. The GI50 in experiment [7], in [9], in experiment [10], in experiment [11], in experiment [12] and in [13] was > 100 µM (inactive) in each case. The GI50 in [16], in experiment [14] and in experiment [15] was > 100 µM (inactive) each time.

Regarding `O=C1NC2NC3NC(=O)NC3NC2N1` (centres undefined), the GI50 in [1], in experiment [2], in experiment [3], in experiment [4], in experiment [6] and in experiment [8] was > 100 µM (inactive) throughout. Also, the GI50 in experiment [9] is > 100 µM (inactive); in experiment [17], 76.4 µM (inactive); in [10], > 100 µM (inactive); in [11], > 100 µM (inactive); in [12], > 100 µM (inactive); in experiment [13] it was > 100 µM (inactive). Moreover, the GI50 in experiment [16], in [14] and in [15] was > 100 µM (inactive) in each case.

Regarding `O=C1NC(=S)NC(=O)C1=Cc1ccc(-c2ccccc2)cc1`, the GI50 was > 100 µM (inactive) in experiment [1]; > 100 µM (inactive) in experiment [2]; 99.8 µM (inactive) in [4]; > 100 µM (inactive) in [5]; > 100 µM (inactive) in experiment [6]; > 100 µM (inactive) in [7]. In addition, the GI50 is > 100 µM (inactive) in experiment [9]; > 100 µM (inactive) in experiment [10]; > 100 µM (inactive) in experiment [11]; > 100 µM (inactive) in [18]; 36.3 µM (inactive) in [12]; 66.2 µM (inactive) in [13]. Further, the GI50 in experiment [16], in experiment [14] and in experiment [15] was > 100 µM (inactive) each time.

In the case of `COc1ccc2c(c1)c(=Cc1ccc(N(C)C)cc1)c1cc(-c3ccccc3)[n+](C)n12`, the GI50 in [1] was 0.643 µM (active); in experiment [2] it was 1.14 µM (inactive); in [3] it was 0.0728 µM (active); in experiment [4], 0.274 µM (active); in [5] it was 0.245 µM (active); in [6], 0.359 µM (active). The GI50 in [7] was 1.28 µM (inactive); in [8], 0.284 µM (active); in experiment [9], 0.343 µM (active); in experiment [17], 0.00269 µM (active); in [10] it was 0.479 µM (active); in experiment [11] it was 0.0592 µM (active). The GI50 in experiment [12] is 0.269 µM (active); in experiment [13] it was 0.182 µM (active); in [16], 0.304 µM (active); in [14], 0.0246 µM (active); in experiment [15] it was 0.423 µM (active).

With `COc1cc(C2c3cc4c(cc3[C@@H](Nc3ccc(F)cc3)C3COC[C@H]23)OCO4)cc(OC)c1O` (some centres undefined), the GI50 is 0.451 µM (active) in [1]; 1.03 µM (active) in [2]; 3.22 µM (inactive) in experiment [3]; 2.74 µM (inactive) in experiment [4]; 0.152 µM (active) in experiment [5]; 7.82 µM (inactive) in [6]. Further, the GI50 in [7] was 11.7 µM (inactive); in experiment [8], 0.533 µM (active); in experiment [17], 2.77 µM (inactive); in [18] it was 1.74 µM (inactive); in experiment [12], 0.622 µM (active); in [13] it was 1.49 µM (inactive). In addition, the results for the GI50 in [16], in experiment [14] and in experiment [15] were 3.43 µM (inactive), 4.73 µM (inactive) and 1.75 µM (inactive), respectively.

As to `Oc1cc(O)c2ccc(-c3ccc(O)c(O)c3)[o+]c2c1`, the GI50 in experiment [1], in experiment [2], in experiment [3], in [5], in experiment [6] and in experiment [7] was > 100 µM (inactive) each time. For the same compound, the GI50 in experiment [8] is > 100 µM (inactive); in experiment [9], > 100 µM (inactive); in [17] it was > 100 µM (inactive); in experiment [11], > 100 µM (inactive); in experiment [12], 67.9 µM (inactive); in experiment [13], 84.9 µM (inactive). Also, in [15], the GI50 is > 100 µM (inactive).

With `Cc1ccc(-c2cc(=O)c(=O)[nH][nH]2)cc1`, the GI50 in experiment [1] was > 100 µM (inactive); in experiment [2], > 100 µM (inactive); in experiment [3], 36.9 µM (inactive); in experiment [4], > 100 µM (inactive); in [5] it was > 100 µM (inactive); in [6], > 100 µM (inactive). The GI50 in experiment [7] is > 100 µM (inactive); in experiment [17], 18 µM (inactive); in [10] it was > 100 µM (inactive); in experiment [11], > 100 µM (inactive); in [18] it was > 100 µM (inactive); in experiment [12], > 100 µM (inactive). The GI50 in experiment [16], in experiment [14] and in experiment [15] was > 100 µM (inactive) in each case.
